# How the values were obtained:
# Cytochrome P450 2E1 = Cytochrome P450 2E1 (Homo sapiens, UniProt P05181); conditions: bti-tn-5b1-4; note: in other assays of this panel Not Active means under 50% inhibition at 10 µM
# [1] = target: cGMP-specific 3',5'-cyclic phosphodiesterase (Homo sapiens, UniProt O76074); experiment: DRUGMATRIX: Phosphodiesterase PDE5 enzyme inhibition (substrate: [3H]cGMP + cGMP); format: tissue-based, Platelet; conditions: platelet; Not Active = under 50% inhibition at 10 µM
# Substance-K receptor = target: T1, Substance-K receptor (Homo sapiens, UniProt P21452); format: cell membranes, CHO, Membrane; conditions: cho; note: in other assays of this panel Not Active means under 50% inhibition at 10 µM
# T1 sequence (P21452 whole entry): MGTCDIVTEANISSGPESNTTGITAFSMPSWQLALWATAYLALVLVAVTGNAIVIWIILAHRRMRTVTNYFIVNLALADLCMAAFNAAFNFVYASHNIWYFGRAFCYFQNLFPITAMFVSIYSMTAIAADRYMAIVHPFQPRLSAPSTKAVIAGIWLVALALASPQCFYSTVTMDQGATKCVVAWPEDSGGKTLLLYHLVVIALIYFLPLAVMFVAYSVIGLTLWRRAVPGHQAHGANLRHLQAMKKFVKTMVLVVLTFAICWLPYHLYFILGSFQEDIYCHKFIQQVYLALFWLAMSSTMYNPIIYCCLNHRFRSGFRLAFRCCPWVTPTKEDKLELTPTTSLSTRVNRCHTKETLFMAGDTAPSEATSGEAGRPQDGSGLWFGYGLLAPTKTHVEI
# [2] = target: T2, Receptor-type tyrosine-protein phosphatase C (Homo sapiens, UniProt P08575); design: species or system Escherichia coli;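 note: inhibition of CD45 enzyme activity measured using DiFMUP as substrate; in other assays of this panel Not Active means under 50% inhibition at 10 µM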
# T2 sequence (P08575 whole entry): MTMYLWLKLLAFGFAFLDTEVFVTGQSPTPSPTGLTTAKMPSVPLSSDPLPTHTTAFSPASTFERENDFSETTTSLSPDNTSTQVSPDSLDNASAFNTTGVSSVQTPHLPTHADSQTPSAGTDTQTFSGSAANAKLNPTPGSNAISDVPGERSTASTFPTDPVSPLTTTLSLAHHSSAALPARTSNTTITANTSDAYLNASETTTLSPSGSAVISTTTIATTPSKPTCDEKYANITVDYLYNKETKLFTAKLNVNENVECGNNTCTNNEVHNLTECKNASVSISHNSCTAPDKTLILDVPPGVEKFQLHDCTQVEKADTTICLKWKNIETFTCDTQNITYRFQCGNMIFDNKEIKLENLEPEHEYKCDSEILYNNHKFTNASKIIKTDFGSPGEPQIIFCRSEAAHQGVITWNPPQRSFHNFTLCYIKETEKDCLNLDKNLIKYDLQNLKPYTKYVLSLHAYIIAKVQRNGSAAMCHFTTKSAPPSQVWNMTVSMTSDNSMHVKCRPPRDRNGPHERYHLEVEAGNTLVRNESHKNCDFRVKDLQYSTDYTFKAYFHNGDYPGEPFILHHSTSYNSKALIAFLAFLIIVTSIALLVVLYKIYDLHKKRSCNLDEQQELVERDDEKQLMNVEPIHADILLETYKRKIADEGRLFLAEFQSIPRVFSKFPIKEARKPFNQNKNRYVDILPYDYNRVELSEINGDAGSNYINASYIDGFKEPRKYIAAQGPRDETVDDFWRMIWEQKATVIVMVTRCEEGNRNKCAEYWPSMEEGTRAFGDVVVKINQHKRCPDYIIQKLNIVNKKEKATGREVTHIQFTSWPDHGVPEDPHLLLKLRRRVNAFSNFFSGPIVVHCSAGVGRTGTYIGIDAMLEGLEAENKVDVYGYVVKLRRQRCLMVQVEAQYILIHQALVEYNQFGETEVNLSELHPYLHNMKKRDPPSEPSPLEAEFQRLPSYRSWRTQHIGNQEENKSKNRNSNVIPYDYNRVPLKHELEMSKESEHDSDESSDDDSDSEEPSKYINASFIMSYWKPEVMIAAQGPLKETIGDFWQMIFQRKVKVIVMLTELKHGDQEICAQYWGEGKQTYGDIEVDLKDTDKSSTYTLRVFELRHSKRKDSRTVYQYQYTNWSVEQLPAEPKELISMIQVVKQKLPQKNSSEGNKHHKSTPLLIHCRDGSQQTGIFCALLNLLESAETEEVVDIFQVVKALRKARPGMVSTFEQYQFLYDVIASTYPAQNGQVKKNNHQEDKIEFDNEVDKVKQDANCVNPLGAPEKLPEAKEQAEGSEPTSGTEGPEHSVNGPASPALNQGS
# [3] = DRUGMATRIX: GABAA, Muscimol, Central radioligand binding (ligand: [3H] Muscimol); format: cell membranes, Rattus norvegicus, Wistar, Brain, Membrane; conditions: Not Active = under 50% inhibition at 10 µM
# [4] = DRUGMATRIX: Tumor Necrosis Factor (TNF), Non-Selective radioligand binding (ligand: [125I] TNF-alpha); format: cell membranes, Membrane; conditions: u-937; Not Active = under 50% inhibition at 10 µM
# Caspase-1 = target: T3, Caspase-1 (Homo sapiens, UniProt P29466); design: species or system Escherichia coli;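 note: Caspase-1 enzyme inhibition assay with a peptide substrate; in other assays of this panel Not Active means under 50% inhibition at 10 µM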
# T3 sequence (P29466 whole entry): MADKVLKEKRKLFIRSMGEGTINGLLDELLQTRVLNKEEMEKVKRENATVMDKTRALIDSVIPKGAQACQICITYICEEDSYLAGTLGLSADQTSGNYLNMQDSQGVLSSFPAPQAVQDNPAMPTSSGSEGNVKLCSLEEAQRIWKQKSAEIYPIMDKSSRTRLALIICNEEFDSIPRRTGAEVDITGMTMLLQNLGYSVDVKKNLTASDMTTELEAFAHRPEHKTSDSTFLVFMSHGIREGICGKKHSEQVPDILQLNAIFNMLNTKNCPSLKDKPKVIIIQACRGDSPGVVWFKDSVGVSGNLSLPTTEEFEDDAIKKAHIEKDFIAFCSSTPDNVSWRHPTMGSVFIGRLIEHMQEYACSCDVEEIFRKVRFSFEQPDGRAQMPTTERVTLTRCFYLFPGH
# [5] = target: T4, Neuropeptide Y receptor type 1 (Homo sapiens, UniProt P25929); format: cell membranes, Membrane; conditions: sk-n-mc; note: in other assays of this panel Not Active means under 50% inhibition at 10 µM
# T4 sequence (P25929 whole entry): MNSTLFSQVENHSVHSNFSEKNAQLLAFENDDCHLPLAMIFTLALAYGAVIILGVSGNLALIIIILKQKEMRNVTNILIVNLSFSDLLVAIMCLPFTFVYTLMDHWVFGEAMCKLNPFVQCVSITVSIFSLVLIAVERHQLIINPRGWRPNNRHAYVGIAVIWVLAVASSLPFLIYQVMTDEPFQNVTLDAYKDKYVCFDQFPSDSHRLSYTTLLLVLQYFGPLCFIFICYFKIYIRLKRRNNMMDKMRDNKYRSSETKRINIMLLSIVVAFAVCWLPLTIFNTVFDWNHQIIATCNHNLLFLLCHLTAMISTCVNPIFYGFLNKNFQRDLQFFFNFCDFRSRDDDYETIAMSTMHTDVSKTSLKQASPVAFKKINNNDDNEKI
# Chain of Cytochrome P450 2E1 (P05181 whole entry): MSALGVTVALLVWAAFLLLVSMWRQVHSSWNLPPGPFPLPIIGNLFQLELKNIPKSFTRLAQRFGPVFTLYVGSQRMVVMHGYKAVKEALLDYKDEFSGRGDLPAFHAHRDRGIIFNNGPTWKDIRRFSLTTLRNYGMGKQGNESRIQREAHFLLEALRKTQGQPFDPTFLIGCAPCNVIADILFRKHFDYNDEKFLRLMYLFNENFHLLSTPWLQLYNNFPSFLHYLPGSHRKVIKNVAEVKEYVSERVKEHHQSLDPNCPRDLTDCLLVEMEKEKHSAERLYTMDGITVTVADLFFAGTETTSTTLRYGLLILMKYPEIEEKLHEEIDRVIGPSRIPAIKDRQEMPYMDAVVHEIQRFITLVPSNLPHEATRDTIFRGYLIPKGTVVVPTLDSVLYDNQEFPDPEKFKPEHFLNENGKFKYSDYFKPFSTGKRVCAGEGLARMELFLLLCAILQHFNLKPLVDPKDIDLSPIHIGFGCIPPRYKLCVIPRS
Compound,IC50 (Cytochrome P450 2E1),Ki (Cytochrome P450 2E1),IC50 [1],IC50 (Substance-K receptor),IC50 [2],IC50 [3],Ki [3],IC50 [4],Ki [4],IC50 (Caspase-1),IC50 [5],IC50 ([3]; read-out: IC50),Ki ([3]; read-out: Ki)
CN(N=O)C(=O)N[C@@H](C=O)[C@@H](O)[C@H](O)[C@H](O)CO [STREPTOZOCIN],Not Active,Not Active,Not Active,Not Active,Not Active,Not Active,Not Active,Not Active,Not Active,Not Active,Not Active,,
Cc1cc(NS(=O)(=O)c2ccc(N)cc2)no1 [SULFAMETHOXAZOLE],Not Active,Not Active,Not Active,Not Active,Not Active,Not Active,Not Active,Not Active,Not Active,Not Active,Not Active,,
Nc1ccc(S(N)(=O)=O)cc1 [SULFANILAMIDE],Not Active,Not Active,Not Active,Not Active,Not Active,Not Active,Not Active,Not Active,Not Active,Not Active,Not Active,,
Nc1ccc(S(=O)(=O)Nc2ccnn2-c2ccccc2)cc1 [SULFAPHENAZOLE],Not Active,Not Active,Not Active,Not Active,Not Active,Not Active,Not Active,Not Active,Not Active,Not Active,Not Active,,
C=CC[C@@H]1/C=C(\C)C[C@H](C)C[C@H](OC)[C@H]2O[C@@](O)(C(=O)C(=O)N3CCCC[C@H]3C(=O)O[C@H](/C(C)=C/[C@@H]3CC[C@@H](O)[C@H](OC)C3)[C@H](C)[C@@H](O)CC1=O)[C@H](C)C[C@@H]2OC [TACROLIMUS ANHYDROUS],Not Active,Not Active,Not Active,Not Active,Not Active,Not Active,Not Active,Not Active,Not Active,Not Active,Not Active,,
CC1CN(c2cc3c(cc2F)c(=O)c(C(=O)O)cn3-c2ccc(F)cc2F)CCN1 (configuration not stated) [TEMAFLOXACIN],Not Active,Not Active,Not Active,Not Active,Not Active,Not Active,Not Active,Not Active,Not Active,Not Active,Not Active,,
CC(C)(C)NCC(O)c1cc(O)cc(O)c1 (configuration not stated) [TERBUTALINE],Not Active,Not Active,Not Active,Not Active,Not Active,Not Active,Not Active,Not Active,Not Active,Not Active,Not Active,,
CN(C)[C@@H]1C(O)=C(C(N)=O)C(=O)[C@@]2(O)C(O)=C3C(=O)c4c(O)cccc4[C@@](C)(O)[C@H]3C[C@@H]12 [TETRACYCLINE],Not Active,Not Active,Not Active,Not Active,Not Active,Not Active,Not Active,Not Active,Not Active,Not Active,Not Active,,
c1ccc2[nH]c(-c3cscn3)nc2c1 [THIABENDAZOLE],Not Active,Not Active,Not Active,Not Active,Not Active,Not Active,Not Active,Not Active,Not Active,Not Active,Not Active,,
Cc1ccc(C(=O)C(C)CN2CCCCC2)cc1 (configuration not stated) [TOLPERISONE],Not Active,Not Active,Not Active,Not Active,Not Active,Not Active,Not Active,Not Active,Not Active,Not Active,Not Active,,
NC(CO)(CO)CO [TROMETHAMINE],Not Active,Not Active,Not Active,Not Active,Not Active,Not Active,Not Active,Not Active,Not Active,Not Active,Not Active,,
CN1[C@@H]2CC[C@H]1C[C@@H](OC(=O)c1c[nH]c3ccccc13)C2 [TROPISETRON],Not Active,Not Active,Not Active,Not Active,Not Active,,,Not Active,Not Active,Not Active,Not Active,3020 nM,2400 nM
